A short description of data set [1]: Clearance in rat at 1.2 mg/kg, iv and 2.2 mg/kg, po. It is filed as ADME, organism-based. The following applies: in vivo.
The target of data set [2] is T1, Urotensin-2 receptor (Homo sapiens, UniProt Q9UKP6).
T1 sequence (Q9UKP6 whole entry): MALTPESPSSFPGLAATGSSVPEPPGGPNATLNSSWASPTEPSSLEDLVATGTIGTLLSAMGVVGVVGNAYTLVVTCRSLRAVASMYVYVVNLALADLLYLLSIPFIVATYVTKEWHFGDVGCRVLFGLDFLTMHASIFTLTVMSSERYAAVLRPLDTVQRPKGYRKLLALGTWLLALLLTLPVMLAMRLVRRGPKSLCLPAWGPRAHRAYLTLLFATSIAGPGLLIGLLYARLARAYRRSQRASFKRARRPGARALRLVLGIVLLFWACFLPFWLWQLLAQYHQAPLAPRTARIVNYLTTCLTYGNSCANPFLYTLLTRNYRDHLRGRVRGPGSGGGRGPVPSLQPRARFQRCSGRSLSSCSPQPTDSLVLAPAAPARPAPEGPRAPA
The data set is described as follows: Displacement of [125I]human urotensin 2 from human recombinant urotensin 2 receptor expressed in HEK293 cells. It is filed as cell-based. For orientation: Displacement assays read how much labelled ligand stays bound in the presence of the test substance.

The target in another data set is Cytochrome P450 2D6 (Homo sapiens, UniProt P10635). The data set can be described thus: Inhibition of CYP2D6. The data set is classed as ADME.
A further data set deals with Cytochrome P450 3A4 (Homo sapiens, UniProt P08684). The data set is described as follows: Inhibition of CYP3A4. It is filed as ADME.
Data set [3] can be described thus: Bioavailability in rat at 2.2 mg/kg, po. The data set is classed as ADME, organism-based. The following applies: in vivo.
Data set [4] in a line: Volume of distribution at steady state in rat at 1.2 mg/kg, iv and 2.2 mg/kg, po. The data set is classed as ADME, organism-based. The following applies: in vivo, read-out: Vdss.
The nature of data set [5]: Half life in rat at 1.2 mg/kg, iv and 2.2 mg/kg, po. The following applies: in vivo. It is filed as ADME, organism-based.
Data set [6] is described as follows: Blockade of human urotensin 2-induced contraction in cat isolated femoral artery. The data set is classed as functional, Felis catus.
A short description of data set [7]: Displacement of [125I]human urotensin 2 from cat urotensin 2 receptor. Also on record: species or system Felis catus.
The test system of a further data set is Aorta. The data set can be described thus: Blockade of human urotensin 2-induced contraction in rat isolated aorta. The data set is classed as functional.
The target of data set [8] is T2, Urotensin-2 receptor (Rattus norvegicus, UniProt P49684).
T2 sequence (P49684 whole entry): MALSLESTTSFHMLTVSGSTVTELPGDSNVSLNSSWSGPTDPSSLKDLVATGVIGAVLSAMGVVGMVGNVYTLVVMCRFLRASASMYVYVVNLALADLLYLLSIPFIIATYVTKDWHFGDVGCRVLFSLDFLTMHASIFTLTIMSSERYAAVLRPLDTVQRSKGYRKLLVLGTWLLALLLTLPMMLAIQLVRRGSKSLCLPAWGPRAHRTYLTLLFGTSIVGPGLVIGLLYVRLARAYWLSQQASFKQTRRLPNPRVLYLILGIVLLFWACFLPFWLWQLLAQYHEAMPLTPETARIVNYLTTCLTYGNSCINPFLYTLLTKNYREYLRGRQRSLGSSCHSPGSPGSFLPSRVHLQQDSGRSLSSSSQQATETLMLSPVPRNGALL
The data set is described as follows: Displacement of [125I]human urotensin 2 from rat urotensin 2 receptor.

The target of data set [9] is T1, Urotensin-2 receptor. The data set is described as follows: Inhibition of human recombinant urotensin 2 receptor-mediated calcium mobilization expressed in HEK293 cells by FLIPR assay. It is filed as functional, cell-based.
For data set [10], the target named is T1, Urotensin-2 receptor. The data set is described as follows: Antagonist activity at human urotensin 2 receptor. The data set is classed as functional. The following applies: read-out: pA2 (converted).

The term Ki denotes the dissociation constant of the complex between target and ligand, obtained from inhibition or displacement. One may read the IC50 as the midpoint of a concentration-inhibition curve. By bioavailability is commonly meant the share of a dose that reaches the circulation, judged against a reference dose that is usually intravenous. A lower bioavailability goes with little systemic uptake. As usually defined, the half-life is the time in which the quantity being followed falls by half. High values mean slow decline, low ones rapid decline. Broadly, the pKb is −log10 of the Kb, conventionally taken in molar units. Lower therefore signals a high Kb.

Chain of Cytochrome P450 2D6 (P10635 whole entry): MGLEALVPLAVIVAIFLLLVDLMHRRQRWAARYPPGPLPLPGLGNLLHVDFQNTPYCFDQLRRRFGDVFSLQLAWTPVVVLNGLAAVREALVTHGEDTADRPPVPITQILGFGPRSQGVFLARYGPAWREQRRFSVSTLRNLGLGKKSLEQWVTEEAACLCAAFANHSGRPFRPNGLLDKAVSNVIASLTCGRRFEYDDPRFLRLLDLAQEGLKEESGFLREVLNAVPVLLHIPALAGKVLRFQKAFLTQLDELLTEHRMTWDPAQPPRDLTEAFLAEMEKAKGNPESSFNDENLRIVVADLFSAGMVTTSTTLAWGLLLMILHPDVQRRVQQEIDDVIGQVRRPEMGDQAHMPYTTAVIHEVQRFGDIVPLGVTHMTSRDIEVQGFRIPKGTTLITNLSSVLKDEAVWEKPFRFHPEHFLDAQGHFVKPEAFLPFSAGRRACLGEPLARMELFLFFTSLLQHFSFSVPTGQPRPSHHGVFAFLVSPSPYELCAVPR
Chain of Cytochrome P450 3A4 (P08684 whole entry): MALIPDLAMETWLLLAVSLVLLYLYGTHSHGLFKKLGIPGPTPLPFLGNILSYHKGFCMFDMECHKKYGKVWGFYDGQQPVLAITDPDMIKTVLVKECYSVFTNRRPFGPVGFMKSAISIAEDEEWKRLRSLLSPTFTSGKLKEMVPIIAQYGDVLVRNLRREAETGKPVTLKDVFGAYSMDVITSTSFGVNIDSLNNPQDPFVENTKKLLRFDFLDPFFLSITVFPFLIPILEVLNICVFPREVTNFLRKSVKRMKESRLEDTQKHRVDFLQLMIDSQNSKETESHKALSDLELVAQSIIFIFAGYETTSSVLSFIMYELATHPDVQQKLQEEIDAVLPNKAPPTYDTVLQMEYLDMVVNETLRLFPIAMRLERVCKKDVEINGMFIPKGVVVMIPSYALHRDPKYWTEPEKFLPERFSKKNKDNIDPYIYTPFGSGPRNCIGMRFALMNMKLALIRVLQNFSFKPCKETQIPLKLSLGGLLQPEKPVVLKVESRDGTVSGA

Turning to `CN(CC(=O)N1CCC[C@H](c2ccccc2)[C@@H]1CN1CCCC1)c1ccc(Cl)c(Cl)c1` (stereo in doubt; 10b), the clearance in data set [1] is 5.82 L/h/kg. In addition, the Ki on Urotensin-2 receptor [2] was 0.0158 µM. The concentration for half-maximal inhibition (IC50) against Cytochrome P450 2D6 worked out at 0.8 µM; at Cytochrome P450 3A4, 1.4 µM. Moreover, the bioavailability in [3] worked out at 0%. Besides, in data set [4], the Vd worked out at 23 L/kg. In data set [5], this compound showed a half-life of 3.8 h.

In the case of `CN(CC(=O)N1CCC[C@H](c2ccccc2)[C@@H]1CN1CCCC1)c1cccc(Cl)c1`, at Urotensin-2 receptor [2], the inhibition constant Ki is 0.0794 µM. On the same count and under the same terms, the same measure for `O=C(CNc1ccc(Cl)c(Cl)c1)N1CCC[C@H](c2ccccc2)[C@@H]1CN1CCCC1`: 0.0631 µM; for `O=C(c1cccc2ccccc12)N1CCC[C@H](c2ccccc2)[C@@H]1CN1CCCC1`: > 7.94 µM. Turning to `CN1CCN(CC2CCCCN2C(=O)Cc2csc3ccc(Cl)cc23)CC1` (stereo unspecified), the Ki at Urotensin-2 receptor [2] was > 7.94 µM. For the compound `CN(CC(=O)N1CCC[C@H](c2ccccc2)[C@@H]1CN1CCCC1)Cc1ccc(Cl)c(Cl)c1`, the Ki at Urotensin-2 receptor [2] is 3.98 µM.

As for `CCN(CC(=O)N1CCC[C@H](c2ccccc2)[C@@H]1CN1CCCC1)c1ccc(Cl)c(Cl)c1`, on Urotensin-2 receptor [2], the Ki was 0.0316 µM.

As to `CN(CC(=O)N1CCC[C@H](c2ccccc2)[C@@H]1CN1CCCC1)c1ccc(Cl)c(Cl)c1` (stereo in doubt; 11a), the negative logarithm of the Kb (pKb) was 7.2 in [6] and 7.9 in the data set on Aorta. For the same compound, the “Log Ki” value in [7] is recorded as -8.1. The inhibitory constant (Ki) at Urotensin-2 receptor [2] and on Urotensin-2 receptor [8] was 0.00631 µM throughout. Consider `O=C(Cc1csc2ccc(Br)cc12)N1CCC[C@H](c2ccccc2)[C@@H]1CN1CCCC1`, for which, at Urotensin-2 receptor [2], the inhibitory constant (Ki) was 0.00794 µM. Consider `CC(=O)N(CC(=O)N1CCC[C@H](c2ccccc2)[C@@H]1CN1CCCC1)c1ccc(Cl)c(Cl)c1`, for which the inhibition constant (Ki) on Urotensin-2 receptor [2] is 1.58 µM.

For `COc1cccc(N(C)CC(=O)N2CCC[C@H](c3ccccc3)[C@@H]2CN2CCCC2)c1`, at Urotensin-2 receptor [2], the inhibition constant Ki is 0.794 µM.

Take `CN(CC(=O)N1CCC[C@H](c2ccccc2)[C@@H]1CN1CCCC1)c1cccc(C(F)(F)F)c1`: the inhibition constant (Ki) at Urotensin-2 receptor [2] was 0.1 µM. Still for that read-out and setting: the same measure for `CN(CC(=O)N1CCC[C@H](c2ccccc2)[C@@H]1CN1CCCC1)c1ccccc1`: 3.16 µM. Take `CCN(CC)CC1CCCCN1C(=O)Cc1csc2ccc(Cl)cc12` (stereo unspecified): the Ki at Urotensin-2 receptor [2] is > 7.94 µM. Still for that read-out and setting: the same measure for `O=C(CN(CC1CC1)c1ccc(Cl)c(Cl)c1)N1CCC[C@H](c2ccccc2)[C@@H]1CN1CCCC1`: 0.0501 µM.

On to `CN(CC(=O)N1CCC[C@@H](c2ccccc2)[C@H]1CN1CCCC1)c1ccc(Cl)c(Cl)c1`, for which, on Urotensin-2 receptor [2], the inhibition constant (Ki) was 1.58 µM. Still for that read-out and setting: in the case of `O=C(Cc1cccc2ccccc12)N1CCC[C@H](c2ccccc2)[C@@H]1CN1CCCC1` it was 0.0794 µM; in that of `Cc1ccc(N(C)CC(=O)N2CCC[C@H](c3ccccc3)[C@@H]2CN2CCCC2)cc1C`, 0.2 µM; in that of `O=C(Cc1csc2ccc(Cl)cc12)N1CCCCC1CN1CCCCC1` (stereo unspecified), 7.94 µM. `O=C(Cc1csc2ccc(Cl)cc12)N1C[C@H](c2ccccc2)CC[C@H]1CN1CCCC1` (relative stereo): the inhibition constant Ki at Urotensin-2 receptor [2] is 0.0316 µM.

As to `O=C(Cc1csc2ccc(Cl)cc12)N1CCCCCC1CN1CCCC1` (stereo unspecified), the inhibition constant (Ki) at Urotensin-2 receptor [2] was 2 µM. Same read-out and setting: in the case of `Cc1ccc2scc(CC(=O)N3CCC[C@H](c4ccccc4)[C@@H]3CN3CCCC3)c2c1` it was 0.0158 µM; in that of `CN(CC(=O)N1CCC[C@H](c2ccccc2)[C@@H]1CN1CCCC1)c1ccc(Cl)cc1`, 0.501 µM. With `CN(CC(=O)N1CCCCC1CN1CCCC1)c1ccc(Cl)c(Cl)c1` (stereo unspecified), the inhibition constant Ki on Urotensin-2 receptor [2] is 0.398 µM. For the same compound, the half-inhibitory concentration (IC50) on Urotensin-2 receptor [9] is 0.631 µM.

Consider `O=C(Cc1csc2ccc(Cl)cc12)N1CCC[C@H](C2CCCCC2)[C@@H]1CN1CCCC1` (relative stereo), for which the Ki on Urotensin-2 receptor [2] was 0.0251 µM. Same read-out and setting: in the case of `CN(CC(=O)N1CCC[C@H](c2ccccc2)[C@@H]1CN1CCCC1)c1ccccc1Cl` it was 0.794 µM. For `O=C(Cc1csc2ccc(Cl)cc12)N1CC[C@H](c2ccccc2)C[C@@H]1CN1CCCC1` (relative stereo), the inhibition constant Ki on Urotensin-2 receptor [2] was 0.2 µM. In the case of `O=C(Cc1ccc2ccccc2c1)N1CCC[C@H](c2ccccc2)[C@@H]1CN1CCCC1`, the inhibition constant (Ki) on Urotensin-2 receptor [2] was 7.94 µM. As for `O=C(Cc1csc2ccc(Cl)cc12)N1CCC[C@H](c2ccccc2)[C@@H]1CN1CCCC1`, the values for the pKb (in data set [6]; in the data set on Aorta) were 7.2 and 7.7, respectively. In addition, the “Log Ki” value in data set [7] is listed as -8. Moreover, the inhibition constant Ki at Urotensin-2 receptor [2] was 0.00398 µM; on Urotensin-2 receptor [8], 0.01 µM. Besides, on Urotensin-2 receptor [10], the Kb was 0.01 µM.

For `Cc1cccc(N(C)CC(=O)N2CCC[C@H](c3ccccc3)[C@@H]2CN2CCCC2)c1`, the Ki at Urotensin-2 receptor [2] is 0.398 µM. On the same count and under the same terms, the same measure for `O=C(Cc1csc2ccc(Cl)cc12)N1CCCCC1CN1CCCC1` (stereo unspecified): 0.501 µM; for `O=C(Cc1ccsc1)N1CCC[C@H](c2ccccc2)[C@@H]1CN1CCCC1`: > 7.94 µM; for `O=C(Cc1csc2ccc(Cl)cc12)N1CCC[C@@H](c2ccccc2)[C@H]1CN1CCCC1`: 1 µM. Turning to `O=C(Cc1csc2ccc(Cl)cc12)N1CCC[C@H](c2ccccc2)[C@@H]1CN1CCCC1` (relative stereo), the Ki on Urotensin-2 receptor [2] was 0.00794 µM. As to `O=C(Cc1csc2ccc(Cl)cc12)N1CCCC1CN1CCCC1` (stereo unspecified), the inhibitory constant (Ki) at Urotensin-2 receptor [2] was > 7.94 µM.

Turning to `C[C@H]1CCCN(C(=O)Cc2csc3ccc(Cl)cc23)[C@H]1CN1CCCC1` (relative stereo), the inhibition constant (Ki) on Urotensin-2 receptor [2] is 0.2 µM. On the same count and under the same terms, in the case of `O=C(Cc1csc2ccc(Cl)cc12)N1CCOCC1CN1CCCC1` (stereo unspecified) it was 0.794 µM. For `O=C(Cc1c[nH]c2ccc(Br)cc12)N1CCC[C@H](c2ccccc2)[C@@H]1CN1CCCC1`, on Urotensin-2 receptor [2], the Ki is 0.631 µM.

In the case of `O=C(Cc1csc2ccccc12)N1CCC[C@H](c2ccccc2)[C@@H]1CN1CCCC1`, the inhibition constant (Ki) at Urotensin-2 receptor [2] was 0.251 µM. Take `CS(=O)(=O)N(CC(=O)N1CCC[C@H](c2ccccc2)[C@@H]1CN1CCCC1)c1ccc(Cl)c(Cl)c1`: the Ki at Urotensin-2 receptor [2] was 0.0794 µM. On the same count and under the same terms, the same measure for `O=C(Cc1ccc(Cl)c(Cl)c1)N1CCC[C@H](c2ccccc2)[C@@H]1CN1CCCC1`: 2.51 µM; for `O=C(Cc1csc2ccc(Cl)cc12)N1CCCCC1CN1CCOCC1` (stereo unspecified): 1.26 µM; for `Cc1ccc2scc(CCC(=O)N3CCC[C@H](c4ccccc4)[C@@H]3CN3CCCC3)c2c1`: 3.16 µM. Still for that read-out and setting: the same measure for `CCCO[C@H]1CCCN(C(=O)Cc2csc3ccc(Cl)cc23)[C@H]1CN1CCCC1` (relative stereo): 0.0316 µM. With `CN(CC(=O)N1CCC[C@H](c2ccccc2)[C@@H]1CN1CCCC1)c1ccc2ccccc2c1`, on Urotensin-2 receptor [2], the Ki was 0.158 µM.

The values are drawn from ChEMBL document CHEMBL1145622, “2-Aminomethyl piperidines as novel urotensin-II receptor antagonists” (Bioorg Med Chem Lett, 2008).
